# PMC9562916, “Investigation of the Phenolic Component Bioavailability Using the In Vitro Digestion/Caco-2 Cell Model, as well as the Antioxidant Activity in Chinese Red Wine” (Foods, 2022)
# Marks after values point to notes of the source that are not given here.
# Tested on: not listed separately
# Experiment: PC content of red wine before and after in vitro simulated gastrointestinal digestion (HPLC)
# Assay type: in vitro ADME
# Settings: Cabernet red wine, after simulated gastrointestinal digestion
# Experimental: The digestion procedure was carried out by adapting the method of Brodkorb et al. and Gómez et al.. […] One milliliter (50 units/mL) of porcine amylase was prepared in a 15 mM Na₃PO₄ buffer solution (pH adjusted to 6.8) containing 1.5 mM CaCl2, and it was added to the red wine solution. After 5 min, 4.5 mL of 0.12 M HCl was added to the mixture to adjust the pH to 2.4. One milliliter of porcine pepsin (0.02 mg/L) was dissolved in a 20 mM HCl solution. The mixture was then maintained at 37 °C for 120 min. The digestion mixture was then centrifuged at 8000× g for 15 min to obtain samples from the gastric digestion phase. […] The mixture was incubated at pH 6.5 at 37 °C for 3 h before being centrifuged. The extracts of the intestinal phase were the supernatants. The same operation was done three times, and each sample was stored in a refrigerator (−20 °C) immediately for further analysis.
# The Pati method was adopted, with slight modifications, to measure the content of the PCs. The Agilent 1100 series HPLC instrument was used; it was equipped with a degasser, quaternary pump solvent delivery, a DAD system, and a single quadrupole mass detector coupled with an electrospray ionization LC–MS interface. Briefly, th samples were injected into a Zorbax SB C18 reversed-phase column (5 µm,150 × 2.1 mm, Agilent Technologies, Santa Clara, CA, USA) using an autosampler after filtering through 0.45 µm cellulose acetate syringe filters. The column temperature was kept at 30 °C, the injection volume was 10 µL, and the flow rate was 0.3 mL/min. The eluents were water and formic acid in a 99:1 (v/v) (A) ratio and 100% acetonitrile (B). […] The MS configuration was as follows: ESI, negative ion mode, nebulizer pressure of 30 psi, a dry gas flow rate of 10 mL/min, dry gas temperature of 350 °C, and a scan rate of 100~1200 m/z. PCs were determined according to their retention times, UV/VIS spectra, and high-resolution MS spectra, in addition to a comparison with the standards. […] Putative annotations were made using spectral features and literature information on the chromatographic properties and mass spectra records from the metabolome database. A standard curve was drawn using methanol solutions with different concentrations as the standards. The limits of detection and quantitation were calculated according to the signal-to-noise ratio (limit of detection: signal-to-noise ratio ≥ 3; limit of quantitation: signal-to-noise ratio ≥ 10). […] PCs All of the samples were determined in triplicate.
row,SMILES,"PC Contents, Cabernet, After Digestion"
1,O=C(/C=C/c1ccc(O)c(O)c1)O[C@@H](C(=O)O)[C@@H](O)C(=O)O [Caftaric acid],3.01 ± 0.17 ^b mg/L
2,O=c1c(O[C@@H]2O[C@H](CO)[C@@H](O)[C@H](O)[C@H]2O)c(-c2ccc(O)c(O)c2)oc2cc(O)cc(O)c12 [Isoquercetin],13.46 ± 0.59 ^b mg/L

# Same assay, conditions: Helanshan red wine, after simulated gastrointestinal digestion
row,SMILES,"PC Contents, Helanshan, After Digestion"
1,O=c1c(O[C@@H]2O[C@H](CO)[C@@H](O)[C@H](O)[C@H]2O)c(-c2ccc(O)c(O)c2)oc2cc(O)cc(O)c12 [Isoquercetin],12.01 ± 0.37 ^b mg/L

# Same assay, conditions: Tianzhu red wine, after digestion vs undigested
row,SMILES,Increase in content after digestion [%]
1,O=c1c(O[C@@H]2O[C@H](CO)[C@@H](O)[C@H](O)[C@H]2O)c(-c2ccc(O)c(O)c2)oc2cc(O)cc(O)c12 [Isoquercetin],9.8

# Same assay, conditions: Tianzhu red wine, after simulated gastrointestinal digestion
row,SMILES,"PC Contents, Tianzhu, After Digestion"
1,O=C(/C=C/c1ccc(O)c(O)c1)O[C@@H](C(=O)O)[C@@H](O)C(=O)O [Caftaric acid],5.35 ± 0.23 ^b mg/L
2,O=c1c(O[C@@H]2O[C@H](CO)[C@@H](O)[C@H](O)[C@H]2O)c(-c2ccc(O)c(O)c2)oc2cc(O)cc(O)c12 [Isoquercetin],19.13 ± 0.69 ^b mg/L

# Tested on: not listed separately
# Experiment: Caco-2 transepithelial transport assay of digested red wine
# Assay type: in vitro ADME, human
# Settings: human, Caco-2, apical to basolateral, digested Cabernet red wine; read-out: Apparent Permeability Coefficients, Cabernet
# Experimental: (§1) Caco-2 cells were inoculated following the method of Hubatsch et al. […] Briefly, a 5% v/v of CO2 incubator at 37 °C was used to house the cells. […] Caco-2 cells were sub-cultured when they reached 80-90% of the adherent growth by treating them with a 0.05% v/v of trypsin-EDTA solution. The culture between passages 35 and 40 was used for the following experiment. Transport experiments were performed according to the method of Wu et al. with slight modifications. First, 1.0 × 10^5 Caco-2 cells were inoculated onto 12 mm transparent cell culture plates (Transwell). Media were carefully injected into the apical (0.5 mL) and basolateral (1.5 mL) sides of the Transwell plates. The cell culture medium had to be replaced every other day until the cells formed a monolayer. The integrity and transport ability of the Caco-2 cell monolayer were evaluated by measuring the trans-epithelial electrical resistance (TEER) with a MilliCell voltammeter (Millicell ERS-2, Merck Millipore, Billerica, MA, USA). […] When the cell activity exceeded 0.9, a transport experiment was conducted. The apical side was injected with a digested red wine sample (0.5 mL) and was thoroughly mixed with […] Balanced Salt Solution (HBSS) buffer solution. […] The cells were then cultured in a 37 °C, 5% CO2 incubator. Then, 0.25 mL samples were separately taken from the basolateral side of the monolayer. An equal volume of HBSS buffer was then added every half hour from the beginning of the culture until the end of the culture at 6 h. The collected samples were subsequently filtered and placed in the sample bottle for further HPLC analysis. This experiment was repeated several times to collect enough samples for the next antioxidant test. […] The Agilent 1100 series HPLC instrument was used; it was equipped with a degasser, quaternary pump solvent delivery, a DAD system, and a single quadrupole mass detector coupled with an electrospray ionization LC-MS interface. […] The column temperature was kept at 30 °C, the injection volume was 10 μL, and the flow rate was 0.3 mL/min. The eluents were water and formic acid in a 99:1 (v/v) (A) ratio and 100% acetonitrile (B). The gradient elution procedure was as follows: (1) 3% B solvent at 0 min, (2) 3 to 16% B solvent at 10 min, (3) 16 to 20% B solvent at 30 min, and (4) 20% B solvent maintained until the procedure was completed. The MS configuration was as follows: ESI, negative ion mode, nebulizer pressure of 30 psi, a dry gas flow rate of 10 mL/min, dry gas temperature of 350 °C, and a scan rate of 100~1200 m/z. PCs were determined according to their retention times, UV/VIS spectra, and high-resolution MS spectra, in addition to a comparison with the standards. […] If a standard was unavailable, a structurally related compound was used. Putative annotations were made using spectral features and literature information on the chromatographic properties and mass spectra records from the metabolome database. A standard curve was drawn using methanol solutions with different concentrations as the standards. […] PCs All of the samples were determined in triplicate.
row,SMILES,Papp at 6 h [×10⁻⁶ cm/s]
1,O=C(/C=C/c1ccc(O)c(O)c1)O[C@@H](C(=O)O)[C@@H](O)C(=O)O [Caftaric acid],8.93 ± 1.02
2,O=c1c(O[C@@H]2O[C@H](CO)[C@@H](O)[C@H](O)[C@H]2O)c(-c2ccc(O)c(O)c2)oc2cc(O)cc(O)c12 [Isoquercetin],3.84 ± 0.29

# Same assay, conditions: human, Caco-2, apical to basolateral, digested Helanshan red wine; read-out: Apparent Permeability Coefficients, Helanshan
row,SMILES,Papp at 6 h [×10⁻⁶ cm/s]
1,O=C(/C=C/c1ccc(O)c(O)c1)O[C@@H](C(=O)O)[C@@H](O)C(=O)O [Caftaric acid],8.77 ± 1.28
2,O=c1c(O[C@@H]2O[C@H](CO)[C@@H](O)[C@H](O)[C@H]2O)c(-c2ccc(O)c(O)c2)oc2cc(O)cc(O)c12 [Isoquercetin],3.73 ± 0.27

# Same assay, conditions: human, Caco-2, apical to basolateral, digested Tianzhu red wine; read-out: Apparent Permeability Coefficients, Tianzhu
row,SMILES,Papp at 6 h [×10⁻⁶ cm/s]
1,O=C(/C=C/c1ccc(O)c(O)c1)O[C@@H](C(=O)O)[C@@H](O)C(=O)O [Caftaric acid],8.45 ± 1.31
2,O=c1c(O[C@@H]2O[C@H](CO)[C@@H](O)[C@H](O)[C@H]2O)c(-c2ccc(O)c(O)c2)oc2cc(O)cc(O)c12 [Isoquercetin],3.87 ± 0.23

# Tested on: Caco-2 cell monolayer
# Experiment: as above
# Assay type: in vitro ADME, human
# Settings: Cabernet red wine, digested sample, basolateral side of Caco-2 monolayer
# Experimental: as §1
row,SMILES,"PC Contents, Cabernet, Transmembrane"
1,O=C(/C=C/c1ccc(O)c(O)c1)O[C@@H](C(=O)O)[C@@H](O)C(=O)O [Caftaric acid],0.43 ± 0.01 ^a mg/L
2,O=c1c(O[C@@H]2O[C@H](CO)[C@@H](O)[C@H](O)[C@H]2O)c(-c2ccc(O)c(O)c2)oc2cc(O)cc(O)c12 [Isoquercetin],0.83 ± 0.04 ^a mg/L

# Same assay, conditions: Helanshan red wine, digested sample, basolateral side of Caco-2 monolayer
row,SMILES,"PC Contents, Helanshan, Transmembrane"
1,O=C(/C=C/c1ccc(O)c(O)c1)O[C@@H](C(=O)O)[C@@H](O)C(=O)O [Caftaric acid],0.49 ± 0.02 ^a mg/L
2,O=c1c(O[C@@H]2O[C@H](CO)[C@@H](O)[C@H](O)[C@H]2O)c(-c2ccc(O)c(O)c2)oc2cc(O)cc(O)c12 [Isoquercetin],0.72 ± 0.04 ^a mg/L

# Same assay, conditions: Tianzhu red wine, digested sample, basolateral side of Caco-2 monolayer
row,SMILES,"PC Contents, Tianzhu, Transmembrane"
1,O=C(/C=C/c1ccc(O)c(O)c1)O[C@@H](C(=O)O)[C@@H](O)C(=O)O [Caftaric acid],1.07 ± 0.03 ^a mg/L
2,O=c1c(O[C@@H]2O[C@H](CO)[C@@H](O)[C@H](O)[C@H]2O)c(-c2ccc(O)c(O)c2)oc2cc(O)cc(O)c12 [Isoquercetin],3.81 ± 0.18 ^a mg/L
